Measurements as given in patent publication US11779606B2, “Peptides and combination of peptides of non-canonical origin for use in immunotherapy against different types of cancers” (Immatics Biotechnologies GmbH, priority 2018, dated 2023).

Columns and labels:
CD8+ T cells = assay: In vitro T-cell priming assay (immunogenicity) with artificial APCs loaded with peptide/MHC complexes and anti-CD28; assay type: cell-based, human; details: CD8+ T cells of healthy HLA-A*02 donors, multimer staining, Table 13b
Source text: In order to obtain information regarding the immunogenicity of the TUMAPs of the present invention, the inventors performed investigations using an in vitro T-cell priming assay based on repeated stimulations of CD8+ T cells with artificial antigen presenting cells (aAPCs) loaded with peptide/MHC complexes and anti-CD28 antibody.
In order to perform in vitro stimulations by artificial antigen presenting cells loaded with peptide-MHC complex (pMHC) and anti-CD28 antibody, the inventors first isolated CD8+ T cells from fresh HLA-A*02 leukapheresis products via positive selection using CD8 microbeads (Miltenyi Biotec, Bergisch-Gladbach, Germany) of healthy donors obtained from the University clinics Mannheim, Germany, after informed consent.
PBMCs and isolated CD8+ lymphocytes were incubated in T-cell medium (TCM) until use consisting of RPMI-Glutamax (Invitrogen, Karlsruhe, Germany) supplemented with 10% heat inactivated human AB serum (PAN-Biotech, Aidenbach, Germany), 100 U/ml Penicillin/100 μg/ml Streptomycin (Cambrex, Cologne, Germany), 1 mM sodium pyruvate (CC Pro, Oberdorla, Germany), 20 μg/ml Gentamycin (Cambrex). 2.5 ng/ml IL-7 (PromoCell, Heidelberg, Germany) and 10 U/ml IL-2 (Novartis Pharma, Nümberg, Germany) were also added to the TCM at this step.
Generation of pMHC/anti-CD28 coated beads, T-cell stimulations and readout was performed in a highly defined in vitro system using four different pMHC molecules per stimulation condition and 8 different pMHC molecules per readout condition.
The purified co-stimulatory mouse IgG2a anti human CD28 Ab 9.3 (Jung et al., 1987) was chemically biotinylated using Sulfo-N-hydroxysuccinimidobiotin as recommended by the manufacturer (Perbio, Bonn, Germany). Beads used were 5.6 μm diameter streptavidin coated polystyrene particles (Bangs Laboratories, Illinois, USA).
800.000 beads/200 μl were coated in 96-well plates in the presence of 4×12.5 ng different biotin-pMHC, washed and 600 ng biotin anti-CD28 were added subsequently in a volume of 200 μl. Stimulations were initiated in 96-well plates by co-incubating […] CD8+ T cells with 2×10^5 washed coated beads in 200 μl TCM supplemented with 5 ng/ml IL-12 (PromoCell) for 3 days at 37° C. Half of the medium was then exchanged by fresh TCM supplemented with 80 U/ml IL-2 and incubating was continued for 4 days at 37° C. This stimulation cycle was performed for a total of three times. For the pMHC multimer readout using 8 different pMHC molecules per condition, a two-dimensional combinatorial coding approach was used as previously described (Andersen et al., 2012) with minor modifications encompassing coupling to 5 different fluorochromes. Finally, multimeric analyses were performed by staining the cells with Live/dead near IR dye (Invitrogen, Karlsruhe, Germany), CD8-FITC antibody clone SK1 (BD, Heidelberg, Germany) and fluorescent pMHC multimers. For analysis, a BD LSRII SORP cytometer equipped with appropriate lasers and filters was used. Peptide specific cells were calculated as percentage of total CD8+ cells. Evaluation of multimeric analysis was done using the FlowJo software (Tree Star, Oreg., USA). In vitro priming of specific multimer+CD8+ lymphocytes was detected by comparing to negative control stimulations.

HLA-A*02:01 = HLA-A*02:01 (Homo sapiens, UniProt P04439, D140Y/D185E/D98H/E176V/E277Q/G131W/G231S/I119V/I121R/I166T/I218V/L300P/L318F/N151K/N90K/P208A/P217A/Q86G/Q94H/R138H/R169H/T345S); assay: MHC binding assay (UV-ligand exchange, β2m ELISA); details: MHC class I binding score; peptide exchange yield, binding to HLA-A*02:01, UV-ligand exchange with β2m ELISA
Source text: Candidate peptides for T cell based therapies according to the present invention were further tested for their MHC binding capacity (affinity).
The individual peptide-MHC complexes were produced by UV-ligand exchange, where a UV-sensitive peptide is cleaved upon UV-irradiation and exchanged with the peptide of interest as analyzed. Only peptide candidates that can effectively bind and stabilize the peptide-receptive MHC molecules prevent dissociation of the MHC complexes. To determine the yield of the exchange reaction, an ELISA was performed based on the detection of the light chain (β2m) of stabilized MHC complexes. The assay was performed as generally described in Rodenko et al. (Rodenko et al., 2006).
96 well MAXISorp plates (NUNC) were coated over night with 2 ug/ml streptavidin in PBS at room temperature, washed 4× and blocked for 1h at 37° C. in 2% BSA containing blocking buffer. Refolded HLA-A*02:01/MLA-001 monomers served as standards, covering the range of 15-500 ng/ml. Peptide-MHC monomers of the UV-exchange reaction were diluted 100 fold in blocking buffer. Samples were incubated for 1 h at 37° C., washed four times, incubated with 2 ug/ml HRP conjugated anti-β2m for 1h at 37° C., washed again and detected with TMB solution that is stopped with […]. Absorption was measured at 450 nm. Candidate peptides that show a high exchange yield (preferably higher than 50%, most preferred higher than 75%) are generally preferred for a generation and production of antibodies or fragments thereof, and/or T cell receptors or fragments thereof, as they show sufficient avidity to the MHC molecules and prevent dissociation of the MHC complexes.

Row | Substance | Wells positive [%] (CD8+ T cells) | Peptide exchange (HLA-A*02:01)
1 | 36 (FQVTRTTGV; listed as Homo sapiens) [compound 36] | + (<20% = +) | ++++ (≥75% = ++++)
2 | 68 (KLLADAFKV; listed as Homo sapiens) [compound 68] | ++++ (≥70% = ++++) | ++++ (≥75% = ++++)
3 | 2 (ALLDVLVKL; listed as Homo sapiens) [compound 2] | + (<20% = +) | ++++ (≥75% = ++++)
4 | 65 (IAISQLTFV; listed as Homo sapiens) [compound 65] | + (<20% = +) | ++++ (≥75% = ++++)
5 | 40 (FTLPFLVNL; listed as Homo sapiens) [compound 40] | +++ (50-69% = +++) | ++++ (≥75% = ++++)
6 | 37 (KILDEFYNV; listed as Homo sapiens) [compound 37] | +++ (50-69% = +++) | ++++ (≥75% = ++++)
7 | 31 (VVLPIVITL; listed as Homo sapiens) [compound 31] | ++ (20-49% = ++) | ++++ (≥75% = ++++)
8 | 13 (FLDEGSLLRL; listed as Homo sapiens) [compound 13] | + (<20% = +) | ++++ (≥75% = ++++)
9 | 101 (KLPEGHLPEV; listed as Homo sapiens) [compound 101] | + (<20% = +) | ++++ (≥75% = ++++)
10 | 18 (KMMTFFQGL; listed as Homo sapiens) [compound 18] | ++++ (≥70% = ++++) | ++++ (≥75% = ++++)
11 | 48 (MLAEIHPKA; listed as Homo sapiens) [compound 48] | +++ (50-69% = +++) | ++++ (≥75% = ++++)
12 | 49 (FLWDPRDVVL; listed as Homo sapiens) [compound 49] | + (<20% = +) | ++++ (≥75% = ++++)
13 | 46 (AMVEIIPKV; listed as Homo sapiens) [compound 46] | + (<20% = +) | ++++ (≥75% = ++++)
14 | 74 (TLLSYSIPL; listed as Homo sapiens) [compound 74] | + (<20% = +) | ++++ (≥75% = ++++)
15 | 7 (ALWEEVKATSL; listed as Homo sapiens) [compound 7] | + (<20% = +) | ++++ (≥75% = ++++)
16 | 51 (GLLTQVHIL; listed as Homo sapiens) [compound 51] | + (<20% = +) | ++++ (≥75% = ++++)
17 | 50 (GLASYLDRV; listed as Homo sapiens) [compound 50] | + (<20% = +) | ++++ (≥75% = ++++)
18 | 6 (ALHDSPVYL; listed as Homo sapiens) [compound 6] | ++ (20-49% = ++) | ++++ (≥75% = ++++)
19 | 38 (SLSAWLPSL; listed as Homo sapiens) [compound 38] | + (<20% = +) | ++++ (≥75% = ++++)
20 | 3 (FLLVPSPIWQL; listed as Homo sapiens) [compound 3] | + (<20% = +) | ++++ (≥75% = ++++)
21 | 47 (ALLPGVPGL; listed as Homo sapiens) [compound 47] | ++ (20-49% = ++) | ++++ (≥75% = ++++)
22 | 26 (KLWTSLVNL; listed as Homo sapiens) [compound 26] | +++ (50-69% = +++) | ++++ (≥75% = ++++)
23 | 4 (YLGDSHVLL; listed as Homo sapiens) [compound 4] | + (<20% = +) | ++++ (≥75% = ++++)
24 | 1 (KLLDFSTRI; listed as Homo sapiens) [compound 1] | + (<20% = +) | ++++ (≥75% = ++++)
25 | 96 (KIIEDLANTV; listed as Homo sapiens) [compound 96] | ++ (20-49% = ++) | ++++ (≥75% = ++++)
26 | 33 (FASERPPSV; listed as Homo sapiens) [compound 33] | +++ (50-69% = +++) | ++++ (≥75% = ++++)
27 | 19 (MLLPWLPKL; listed as Homo sapiens) [compound 19] | +++ (50-69% = +++) | ++++ (≥75% = ++++)
